Test results: patent publication US3963707A, “Novel N-nitroso compounds, compositions containing such compounds, processes for their preparation and methods of treatment therewith, and novel intermediates” (Aktiebolaget Leo, priority 1973, dated 1976)

What was measured:
[1] = tested on: Walker carcinosarcoma 256; assay: Walker carcinosarcoma 256 test; format: in vivo, Sprague Dawley rats; conditions: for Lethality: died/used animals
Excerpt: (§1) The experimental design and the interpretation of the results have been in accordance with the standards set by the CCNSC (Cancer Chemotherapy Reports, January 1959 and December 1962), and by the DR&D (Cancer Chemotherapy Reports, September 1972, Vol. 3, No. 2).
(§2) The way of administration is by the intraperitoneal route (i.p.) in each case.
Walker carcinosarcoma 256
Experimental animals: Sprague Dawley rats.
Tumour implant: Tumour pieces with 2-4 mm diameter, subcutaneously.
Therapy: Daily injections i.p. for 5 days starting on the day following implantation.
Termination: The animals are killed on the 9th day.
Evaluation: Weights of tumours of test animals are compared with those of control animals. The differences, in per cent of weights of tumours of control animals, give per cent tumour inhibition.
The lethality is given as the number of animals which died in the experiment/the number of animals used in the experiments.

[2] = tested on: Ehrlich ascites tumour, ELD hyperdiploid (46 chromosomes); assay: Ehrlich ascites tumour test (LD50, ED50, therapeutic index); format: in vivo, SPF NMRI mice; conditions: additional compounds, result in words
Excerpt: The high activity against tumours is further illustrated in these experiments by comparisons with known antitumour agents used in the therapy. The therapeutic indexes (T.I.), i.e. the ratios LD50/ED50, are in all comparisons much more favourable with the compounds of the present invention.
LD50 is the dose that caused a 50 percent lethality of the animals, ED50 is the dose that caused a 50 percent reduction of tumour size.
as §1, §2
Ehrlich ascites tumour, ELD hyperdiploid (46 chromosomes)
Experimental animals: SPF NMRI mice.
Tumour implant: 2 × 10^6 tumour cells i.p.
(§3) Therapy: One injection i.p. on the day following implantation.
Termination: The animals are killed on the 8th day.
Evaluation: Weights of tumours of test animals compared with those of control animals.

Hepatoma AH 130 = assay: in vivo; parameters: species or system SPF Wistar rats; conditions: for T.I. (LD50/ED50): Hepatoma AH 130, rats, i.p.; for ED50: Rattus norvegicus, ip, 192 h, one injection i.p. day after implantation, dose causing 50 percent reduction of tumour size
In short: (§4)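 SPF Wistar rats were implanted i.p. with 5 × 10^6 AH 130 cells and given one i.p. dose the next day. On day 8 they were killed and tumour weights were compared with controls. ED50 is the dose halving tumour size, LD50 the 50% lethal dose, and T.I. is LD50/ED50.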

in vivo = assay: in vivo; parameters: species or system SPF Wistar rats; conditions: rat, in vivo, ip; one injection i.p., rats; dose causing 50 percent lethality
In short: as §4

[3] = tested on: Lymphatic leukemia L 1210; assay: Lymphatic leukemia L 1210 test; format: in vivo, CDF1 (C3H×DBA/2)F1 mice; conditions: dose of 1000 mg/kg, comparative compounds
Excerpt: as §1, §2
Lymphatic leukemia L 1210
Experimental animals: CDF1 (C3H×DBA/2)F1 mice.
Tumour implant: 10^5 tumour cells i.p.
as §3
Evaluation: a) The survival time of the test animals (t) expressed as the percentage of that of control animals (c).
b. Weight change in the test animals (T) compared with that of the control animals (c) up to the 5th day.
c. The mortality rate must not exceed 35% in the test animals on the 5th day of therapy.

[4] = doses 1 × 250, 1 × 500 and 1 × 1000 mg/kg respectively
[5] = additional compounds, result in words

| SMILES | anti-tumor activity [2] | anti-tumor activity (Hepatoma AH 130; [5]) | further results |
| --- | --- | --- | --- |
| C[C@]12CC[C@@H]3c4ccc(OC(=O)c5ccccc5)cc4CC[C@H]3[C@@H]1CC[C@@H]2OC(=O)N(CCCl)N=O [estradiol-3-benzoate-17β-N-(2-chloroethyl)-N-nitroso carbamate] | exhibit anti-tumor activity | – | Tumour inhibition % ([1]; 5×125 mg/kg i.p.): 73%; Lethality ([1]; 5×125 mg/kg i.p.): 0/8; T.I. (LD50/ED50) (Hepatoma AH 130): > 16; ED50 (Hepatoma AH 130): < 63 mg/kg; LD50 (in vivo): > 1000 mg/kg |
| CN(CCCl)C(=O)O[C@H]1CC[C@@]2(C)C(=CC[C@@H]3[C@@H]2CC[C@]2(C)C(=O)CC[C@@H]32)C1 [dehydroepiandrosterone-3β-N-(2-chloroethyl)-N-methyl carbamate, reference compound] | – | – | Tumour inhibition % ([1]; 5×500 mg/kg i.p.): < 10%; Lethality ([1]; 5×500 mg/kg i.p.): 0/8; anti-tumor activity (Hepatoma AH 130; [4]): inactive |
| C[C@]12CC[C@H]3[C@@H](CC=C4C[C@@H](OC(=O)N(CCCl)N=O)CC[C@@]43C)[C@@H]1CC[C@@H]2OC(=O)N(CCCl)N=O [androstenediol-3β,17β-bis-/N-(2-chloroethyl)-N-nitroso carbamate/] | exhibit anti-tumor activity | – | ED50 (Hepatoma AH 130): 0.25 mg/kg; LD50 (in vivo): > 250 mg/kg |
| CCN(N=O)C(=O)O[C@H]1CC[C@@]2(C)C(=CC[C@@H]3[C@@H]2CC[C@]2(C)C(=O)CC[C@@H]32)C1 [dehydroepiandrosterone-3β-N-ethyl-N-nitroso carbamate, reference compound] | – | – | effect on L 1210 [3]: without effect; Tumour inhibition % ([1]; 5×500 mg/kg i.p.): 0%; Lethality ([1]; 5×500 mg/kg i.p.): 1/8; anti-tumor activity (Hepatoma AH 130; [4]): inactive |
| C[C@]12CC[C@H](OC(=O)N(C(=O)N(CCCl)N=O)c3ccccc3)CC1=CC[C@@H]1[C@@H]2CC[C@]2(C)C(=O)CC[C@@H]12 [dehydroepiandrosterone-3β-/N^2-phenyl-N^4-(2-chloroethyl)-N^4-nitroso allophanate/] | exhibit anti-tumor activity | exhibit anti-tumor activity | – |
| CC(=O)[C@@]1(OC(=O)N(CCCl)N=O)CC[C@H]2[C@@H]3CCC4=CC(=O)CC[C@]4(C)[C@H]3CC[C@@]21C [17α-hydroxy-progesterone,17α-N-(2-chloroethyl)-N-nitroso carbamate] | exhibit anti-tumor activity | exhibit anti-tumor activity | – |
| C[C@]12CC[C@@H]3c4ccc(OC(=O)N(CCCl)N=O)cc4CC[C@H]3[C@@H]1CC[C@@H]2OC(=O)N(CCCl)N=O [estradiol-3,17β-bis/N-(2-chloroethyl)-N-nitroso carbamate/] | exhibit anti-tumor activity | exhibit anti-tumor activity | – |
| C[C@]12C=CC(=O)C=C1CC[C@@H]1[C@@H]2C(=O)C[C@@]2(C)[C@H]1CC[C@]2(O)C(=O)COC(=O)N(CCCl)N=O [prednisone-21-N-(2-chloroethyl)-N-nitroso carbamate] | exhibit anti-tumor activity | exhibit anti-tumor activity | – |
| C[C@]12CCC(=O)C=C1CC[C@@H]1[C@@H]2[C@@H](O)C[C@@]2(C)[C@H]1CC[C@]2(O)C(=O)COC(=O)N(CCCl)N=O [hydrocortisone-21-N-(2-chloroethyl)-N-nitroso carbamate] | exhibit anti-tumor activity | exhibit anti-tumor activity | – |
| C[C@]12CC[C@H](OC(=O)N(CCCBr)N=O)CC1=CC[C@@H]1[C@@H]2CC[C@]2(C)C(=O)CC[C@@H]12 [dehydroepiandrosterone - 3β-N-(3-bromopropyl)-N-nitroso carbamate] | exhibit anti-tumor activity | – | Tumour inhibition % ([1]; 5×125 mg/kg i.p.): 39%; Lethality ([1]; 5×125 mg/kg i.p.): 0/8 |
| C[C@]12CC[C@H]3[C@@H](CCC4=CC(=O)CC[C@@H]43)[C@@H]1CC[C@@H]2OC(=O)N(C(=O)N(CCCl)N=O)C1CCCCC1 [19-nortestosterone-17β-/N^2-cyclohexyl-N^4-(2-chloroethyl)-N^4-nitroso allophanate/] | exhibit anti-tumor activity | exhibit anti-tumor activity | – |
| CC(=O)Oc1ccc2c(c1)CC[C@@H]1[C@@H]2CC[C@@]2(C)[C@H]1C[C@@H](OC(C)=O)[C@@H]2OC(=O)N(C(=O)N(CCCl)N=O)C1CCCCC1 [estriol-3,16α-diacetate-17β-/N^2-cyclohexyl-N^4-(2-chloroethyl)-N^4-nitroso allophanate/] | exhibit anti-tumor activity | exhibit anti-tumor activity | – |
| CN(C(=O)O[C@H]1CC[C@@]2(C)C(=CC[C@@H]3[C@@H]2CC[C@]2(C)C(=O)CC[C@@H]32)C1)C(=O)N(CCCl)N=O [dehydroepiandrosterone-3β-/N^2-methyl-N^4-(2-chloroethyl)-N^4-nitroso allophanate/] | exhibit anti-tumor activity | exhibit anti-tumor activity | – |
| C[C@]12CC[C@@H]3c4ccc(OC(=O)N(CCCl)N=O)cc4CC[C@H]3[C@@H]1C[C@@H](OC(=O)CCC(=O)O)[C@@H]2OC(=O)CCC(=O)O [estriol-3-N-(2-chloroethyl)-N-nitroso carbamate-16α,17β-bis-hemisuccinate] | exhibit anti-tumor activity | exhibit anti-tumor activity | – |
| CC(Cl)CN(N=O)C(=O)O[C@H]1CC[C@@]2(C)C(=CC[C@@H]3[C@@H]2CC[C@]2(C)C(=O)CC[C@@H]32)C1 (stereo partly drawn) [dehydroepiandrosterone-3β-N-(2-chloropropyl)-N-nitroso carbamate] | exhibit anti-tumor activity | – | T.I. (LD50/ED50) (Hepatoma AH 130): > 10; ED50 (Hepatoma AH 130): 100 mg/kg; LD50 (in vivo): > 1000 mg/kg |
| CC(=O)Oc1ccc2c(c1)CC[C@@H]1[C@@H]2CC[C@]2(C)[C@@H](OC(=O)N(C(=O)N(CCCl)N=O)C3CCCCC3)CC[C@@H]12 [estradiol-3-acetate-17β-/N^2-cyclohexyl-N^4-(2-chloroethyl)-N^4-nitroso allophanate/] | exhibit anti-tumor activity | exhibit anti-tumor activity | – |
| C[C@]12CC[C@H]3[C@@H](CCC4=CC(=O)CC[C@@]43C)[C@@H]1CC[C@@H]2OC(=O)N(C(=O)N(CCCl)N=O)C1CCCCC1 [testosterone-17β-/N^2-cyclohexyl-N^4-(2-chloroethyl)-N^4-nitroso allophanate/] | exhibit anti-tumor activity | exhibit anti-tumor activity | – |
| CCCCN(C(=O)O[C@H]1CC[C@@]2(C)C(=CC[C@@H]3[C@@H]2CC[C@]2(C)C(=O)CC[C@@H]32)C1)C(=O)N(CCCl)N=O [dehydroepiandrosterone-3β-/N^2-n-butyl-N^4-(2-chloroethyl)-N^4-nitroso allophanate/] | exhibit anti-tumor activity | exhibit anti-tumor activity | – |
| C[C@]12CC[C@H](OC(=O)NC(=O)N(CCCl)N=O)CC1=CC[C@@H]1[C@@H]2CC[C@]2(C)C(=O)CC[C@@H]12 [dehydroepiandrosterone-3β-/N^4-(2-chloroethyl)-N^4-nitroso allophanate/] | exhibit anti-tumor activity | exhibit anti-tumor activity | – |
| C#C[C@]1(OC(C)=O)CC[C@H]2[C@@H]3CCc4cc(OC(=O)N(CCCl)N=O)ccc4[C@H]3CC[C@@]21C [17α-ethynylestradiol-17β-acetate-3-N-(2-chloroethyl)-N-nitroso carbamate] | exhibit anti-tumor activity | exhibit anti-tumor activity | – |
| C[C@]12CC[C@@H]3c4ccc(OC5CCCC5)cc4CC[C@H]3[C@@H]1CC[C@@H]2OC(=O)N(CCCl)N=O [estradiol-17β-N-(2-chloroethyl)-N-nitroso carbamate-3-cyclopentyl ether] | exhibit anti-tumor activity | exhibit anti-tumor activity | – |
| C[C@]12CC[C@H](OC(=O)NCCCl)CC1=CC[C@@H]1[C@@H]2CC[C@]2(C)C(=O)CC[C@@H]12 [dehydroepiandrosterone-3β-N-(2-chloroethyl) carbamate, reference compound] | – | – | effect on L 1210 [3]: without effect; anti-tumor activity (Hepatoma AH 130; [4]): inactive |
